Data taken from the NIST ThermoML archive (doi:10.1021/je700261b).

Experiment: xn = mol fraction of the nth substance listed
Conditions: Liquid

CCCCO [butan-1-ol] + O=C=O
Conditions	mass density [kg/m3]
362.67 K, 7985 kPa, x2 = 0.0251	762.59
362.67 K, 9006 kPa, x2 = 0.0251	763.64
362.67 K, 10031 kPa, x2 = 0.0251	764.7
362.67 K, 11027 kPa, x2 = 0.0251	765.69
362.67 K, 12000 kPa, x2 = 0.0251	766.65
362.67 K, 13054 kPa, x2 = 0.0251	767.68
362.67 K, 14008 kPa, x2 = 0.0251	768.61
362.67 K, 14993 kPa, x2 = 0.0251	769.57
362.67 K, 16000 kPa, x2 = 0.0251	770.52
362.67 K, 17046 kPa, x2 = 0.0251	771.48
362.67 K, 17989 kPa, x2 = 0.0251	772.34
362.67 K, 19009 kPa, x2 = 0.0251	773.27
362.67 K, 20045 kPa, x2 = 0.0251	774.19
362.67 K, 21017 kPa, x2 = 0.0251	775.08
362.67 K, 22075 kPa, x2 = 0.0251	775.99
362.67 K, 23006 kPa, x2 = 0.0251	776.82
362.67 K, 24007 kPa, x2 = 0.0251	777.69
362.67 K, 25062 kPa, x2 = 0.0251	778.61
362.69 K, 2045 kPa, x2 = 0.0857	757.33
362.69 K, 3006 kPa, x2 = 0.0857	758.53
362.69 K, 3982 kPa, x2 = 0.0857	759.72
362.69 K, 5010 kPa, x2 = 0.0857	760.91
362.69 K, 5976 kPa, x2 = 0.0857	762.09
362.69 K, 6994 kPa, x2 = 0.0857	763.25
362.69 K, 7999 kPa, x2 = 0.0857	764.42
362.69 K, 8998 kPa, x2 = 0.0857	765.51
362.69 K, 10048 kPa, x2 = 0.0857	766.67
362.69 K, 11028 kPa, x2 = 0.0857	767.74
362.69 K, 11999 kPa, x2 = 0.0857	768.75
362.69 K, 12994 kPa, x2 = 0.0857	769.85
362.69 K, 14018 kPa, x2 = 0.0857	770.91
362.69 K, 15014 kPa, x2 = 0.0857	771.91
362.69 K, 15995 kPa, x2 = 0.0857	772.93
362.69 K, 17061 kPa, x2 = 0.0857	773.98
362.69 K, 18008 kPa, x2 = 0.0857	774.96
362.69 K, 19008 kPa, x2 = 0.0857	775.88
362.69 K, 20060 kPa, x2 = 0.0857	776.81
362.69 K, 21044 kPa, x2 = 0.0857	777.83
362.69 K, 22045 kPa, x2 = 0.0857	778.82
362.69 K, 23036 kPa, x2 = 0.0857	779.68
362.69 K, 24037 kPa, x2 = 0.0857	780.65
362.69 K, 25015 kPa, x2 = 0.0857	781.57
362.74 K, 14112 kPa, x2 = 0.4972	771.83
362.74 K, 15096 kPa, x2 = 0.4972	773.91
362.74 K, 15985 kPa, x2 = 0.4972	775.76
362.74 K, 17043 kPa, x2 = 0.4972	777.9
362.74 K, 18079 kPa, x2 = 0.4972	779.94
362.74 K, 19117 kPa, x2 = 0.4972	781.94
362.74 K, 20051 kPa, x2 = 0.4972	783.68
362.74 K, 21025 kPa, x2 = 0.4972	785.45
362.74 K, 22018 kPa, x2 = 0.4972	787.27
362.74 K, 23076 kPa, x2 = 0.4972	789.13
362.74 K, 24063 kPa, x2 = 0.4972	790.85
362.74 K, 25140 kPa, x2 = 0.4972	792.64
362.75 K, 21992 kPa, x2 = 0.8663	710.63
362.75 K, 23010 kPa, x2 = 0.8663	720.36
362.75 K, 24074 kPa, x2 = 0.8663	729.68
362.75 K, 25130 kPa, x2 = 0.8663	738.23
362.76 K, 15085 kPa, x2 = 0.5965	765.37
362.76 K, 16042 kPa, x2 = 0.5965	768.34
362.76 K, 17060 kPa, x2 = 0.5965	771.36
362.76 K, 18019 kPa, x2 = 0.5965	774.09
362.76 K, 19023 kPa, x2 = 0.5965	776.91
362.76 K, 20064 kPa, x2 = 0.5965	779.68
362.76 K, 21026 kPa, x2 = 0.5965	782.15
362.76 K, 22023 kPa, x2 = 0.5965	784.67
362.76 K, 23058 kPa, x2 = 0.5965	787.18
362.76 K, 24078 kPa, x2 = 0.5965	789.61
362.76 K, 25110 kPa, x2 = 0.5965	791.98
362.78 K, 6018 kPa, x2 = 0.1842	761.83
362.78 K, 6995 kPa, x2 = 0.1842	763.16
362.78 K, 8099 kPa, x2 = 0.1842	764.64
362.78 K, 9002 kPa, x2 = 0.1842	765.81
362.78 K, 10022 kPa, x2 = 0.1842	767.06
362.78 K, 10995 kPa, x2 = 0.1842	768.34
362.78 K, 12059 kPa, x2 = 0.1842	769.68
362.78 K, 13056 kPa, x2 = 0.1842	770.87
362.78 K, 14029 kPa, x2 = 0.1842	772.05
362.78 K, 15026 kPa, x2 = 0.1842	773.24
362.78 K, 16010 kPa, x2 = 0.1842	774.38
362.78 K, 17020 kPa, x2 = 0.1842	775.53
362.78 K, 18041 kPa, x2 = 0.1842	776.68
362.78 K, 19031 kPa, x2 = 0.1842	777.79
362.78 K, 20045 kPa, x2 = 0.1842	778.9
